# Test results reported in BindingDB's records for doi:10.1021/jm060133g (Pfizer, 2006).
# pIC50: −log10 of the molar value.
# What was measured:
# [1] = Inhibition of dog ACE
# [2] = biological target: Neprilysin (Canis familiaris); assay: Inhibition of dog NEP
SMILES,pIC50 [1],pIC50 [2]
"CCCC(CC1(C(=O)NC2(CO)Cc3ccccc3C2)CCCC1)C(=O)O (racemic) [rac-2-((1-((2-(hydroxymethyl)-2,3-dihydro-1H-inden-2-yl)carbamoyl)cyclopentyl)methyl)pentanoic acid]",< 5.52,
"CCCC(CC1(C(=O)Nc2nnc(CC)s2)CCCC1)C(=O)O (racemic) [rac-2-((1-((5-ethyl-1,3,4-thiadiazol-2-yl)carbamoyl)cyclopentyl)methyl)pentanoic acid]",< 5.52,
"CCCC(CC1(C(=O)Nc2nnc(C)s2)CCCC1)C(=O)O (racemic) [rac-2-((1-((5-methyl-1,3,4-thiadiazol-2-yl)carbamoyl)cyclopentyl)methyl)pentanoic acid]",< 5.52,
"CCCC(CC1(NC(=O)c2ccc(=O)n(Cc3ccccc3)c2)CCCC1)C(=O)O (stereo not given) [2-((1-(1-benzyl-2-oxo-1,2-dihydropyridine-5-carboxamido)cyclopentyl)methyl)pentanoic acid]",,< 5.52
"CCCC(CC1(c2nnc(-c3ccc(=O)n(Cc4ccccc4)c3)o2)CCCC1)C(=O)O (stereo not given) [2-((1-(5-(1-benzyl-6-oxo-1,6-dihydropyridin-3-yl)-1,3,4-oxadiazol-2-yl)cyclopentyl)methyl)pentanoic acid]",< 5.52,5.94
"CCCC(CC1(c2nnc(Cc3ccccc3)o2)CCCC1)C(=O)O (stereo not given) [2-((1-(5-benzyl-1,3,4-oxadiazol-2-yl)cyclopentyl)methyl)pentanoic acid]",< 5.52,5.51
"CCCC(CC1(C(=O)Nc2nncs2)CCCC1)C(=O)O (stereo not given) [2-((1-((1,3,4-thiadiazol-2-yl)carbamoyl)cyclopentyl)methyl)pentanoic acid]",< 5.52,
CCCC(CC1(C(=O)NC2(CO)CCCC2)CCCC1)C(=O)O (stereo not given) [2-((1-((1-(hydroxymethyl)cyclopentyl)carbamoyl)cyclopentyl)methyl)pentanoic acid],< 5.52,5.77
"CCCC(CC1(C(=O)Nc2ccc(=O)n(Cc3ccccc3)c2)CCCC1)C(=O)O (stereo not given) [2-((1-((1-benzyl-6-oxo-1,6-dihydropyridin-3-yl)carbamoyl)cyclopentyl)methyl)pentanoic acid]",< 5.52,6.50
"CCCC(CC1(C(=O)Nc2cn(CC)nn2)CCCC1)C(=O)O (stereo not given) [2-((1-((1-ethyl-1H-1,2,3-triazol-4-yl)carbamoyl)cyclopentyl)methyl)pentanoic acid]",< 5.52,
"CCCC(CC1(C(=O)NC2Cc3ccccc3C2)CCCC1)C(=O)O (stereo not given) [2-((1-((2,3-dihydro-1H-inden-2-yl)carbamoyl)cyclopentyl)methyl)pentanoic acid]",< 5.52,
CCCC(CC1(C(=O)NC2CCCC(C(=O)N(C)C)C2)CCCC1)C(=O)O (stereo not given) [2-((1-((3-(dimethylcarbamoyl)cyclohexyl)carbamoyl)cyclopentyl)methyl)pentanoic acid],< 5.52,
CCCC(CC1(C(=O)Nc2ncccc2CC)CCCC1)C(=O)O (stereo not given) [2-((1-((3-ethylpyridin-2-yl)carbamoyl)cyclopentyl)methyl)pentanoic acid],,5.77
CCCNc1ccnc(NC(=O)C2(CC(CCC)C(=O)O)CCCC2)n1 (stereo not given) [2-((1-((4-(propylamino)pyrimidin-2-yl)carbamoyl)cyclopentyl)methyl)pentanoic acid],< 5.52,< 5.70
CCCC(CC1(C(=O)Nc2cc(Cc3ccccc3)ccn2)CCCC1)C(=O)O (stereo not given) [2-((1-((4-benzylpyridin-2-yl)carbamoyl)cyclopentyl)methyl)pentanoic acid],< 5.52,7.02
CCCCc1ccnc(NC(=O)C2(CC(CCC)C(=O)O)CCCC2)c1 (stereo not given) [2-((1-((4-butylpyridin-2-yl)carbamoyl)cyclopentyl)methyl)pentanoic acid],< 5.52,6.74
CCCC(CC1(C(=O)NCCc2ccc(Cl)cc2)CCCC1)C(=O)O (stereo not given) [2-((1-((4-chlorophenethyl)carbamoyl)cyclopentyl)methyl)pentanoic acid],,< 5.70
CCCC(CC1(C(=O)Nc2cc(C)ccn2)CCCC1)C(=O)O (stereo not given) [2-((1-((4-methylpyridin-2-yl)carbamoyl)cyclopentyl)methyl)pentanoic acid],,6.20
"CCCC(CC1(C(=O)Nc2nnc(CC3CC3)s2)CCCC1)C(=O)O (stereo not given) [2-((1-((5-(cyclopropylmethyl)-1,3,4-thiadiazol-2-yl)carbamoyl)cyclopentyl)methyl)pentanoic acid]",< 5.52,
"CCCC(CC1(C(=O)Nc2nnc(Cc3ccccc3)s2)CCCC1)C(=O)O (stereo not given) [2-((1-((5-benzyl-1,3,4-thiadiazol-2-yl)carbamoyl)cyclopentyl)methyl)pentanoic acid]",< 5.52,
"CCc1nnc(NC(=O)C2(CC(CCc3ccccc3)C(=O)O)CCCC2)s1 (stereo not given) [2-((1-((5-ethyl-1,3,4-thiadiazol-2-yl)carbamoyl)cyclopentyl)methyl)-4-phenylbutanoic acid]",< 5.52,7.34
"CCc1nnc(NC(=O)C2(CC(CCC(C)C)C(=O)O)CCCC2)s1 (stereo not given) [2-((1-((5-ethyl-1,3,4-thiadiazol-2-yl)carbamoyl)cyclopentyl)methyl)-5-methylhexanoic acid]",< 5.52,
"CCCCC(CC1(C(=O)Nc2nnc(CC)s2)CCCC1)C(=O)O (stereo not given) [2-((1-((5-ethyl-1,3,4-thiadiazol-2-yl)carbamoyl)cyclopentyl)methyl)hexanoic acid]",< 5.52,

SMILES,pIC50 [1],pIC50 [2]
"CCCC(CC1(C(=O)Nc2nnc(CC(C)C)s2)CCCC1)C(=O)O (stereo not given) [2-((1-((5-isobutyl-1,3,4-thiadiazol-2-yl)carbamoyl)cyclopentyl)methyl)pentanoic acid]",< 5.52,6.91
"CCCC(CC1(C(=O)Nc2nnc(-c3ccccc3)s2)CCCC1)C(=O)O (stereo not given) [2-((1-((5-phenyl-1,3,4-thiadiazol-2-yl)carbamoyl)cyclopentyl)methyl)pentanoic acid]",< 5.52,
CCCC(CC1(C(=O)Nc2cccc(CC)n2)CCCC1)C(=O)O (stereo not given) [2-((1-((6-ethylpyridin-2-yl)carbamoyl)cyclopentyl)methyl)pentanoic acid],,< 5.70
CCCC(CC1(C(=O)Nc2ccc(OC)nn2)CCCC1)C(=O)O (stereo not given) [2-((1-((6-methoxypyridazin-3-yl)carbamoyl)cyclopentyl)methyl)pentanoic acid],< 5.52,
"CCCC(CC1(C(=O)N[C@@H]2CCCC[C@@H]2Cc2ccccc2)CCCC1)C(=O)O (stereo partly drawn) [2-((1-(((1R,2R)-2-benzylcyclohexyl)carbamoyl)cyclopentyl)methyl)pentanoic acid]",< 5.52,6.71
"CCCC(CC1(C(=O)N[C@@H]2CCCC[C@@H]2CCC)CCCC1)C(=O)O (stereo partly drawn) [2-((1-(((1R,2S)-2-propylcyclohexyl)carbamoyl)cyclopentyl)methyl)pentanoic acid]",< 5.52,
"CCCC(CC1(C(=O)N[C@@H]2CC[C@H](C(N)=O)C2)CCCC1)C(=O)O (stereo partly drawn) [2-((1-(((1R,3S)-3-carbamoylcyclopentyl)carbamoyl)cyclopentyl)methyl)pentanoic acid]",< 5.52,6.67
"CCCC(CC1(C(=O)NCc2nnc(C)s2)CCCC1)C(=O)O (stereo not given) [2-((1-(((5-methyl-1,3,4-thiadiazol-2-yl)methyl)carbamoyl)cyclopentyl)methyl)pentanoic acid]",< 5.52,
CCCC(CC1(C(=O)N[C@@H]2CCN(Cc3ccccc3)C2)CCCC1)C(=O)O (stereo partly drawn) [2-((1-(((R)-1-benzylpyrrolidin-3-yl)carbamoyl)cyclopentyl)methyl)pentanoic acid],< 5.52,5.97
CCCC(CC1(C(=O)N[C@H](C)c2ccccc2)CCCC1)C(=O)O (stereo partly drawn) [2-((1-(((R)-1-phenylethyl)carbamoyl)cyclopentyl)methyl)pentanoic acid],< 5.52,
CCCC(CC1(C(=O)N[C@H](CO)Cc2ccccc2)CCCC1)C(=O)O (stereo partly drawn) [2-((1-(((S)-1-hydroxy-3-phenylpropan-2-yl)carbamoyl)cyclopentyl)methyl)pentanoic acid],< 5.52,6.42
"CCCC(CC1(C(=O)NCc2ccc3c(c2)OCO3)CCCC1)C(=O)O (stereo not given) [2-((1-((benzo[d][1,3]dioxol-5-ylmethyl)carbamoyl)cyclopentyl)methyl)pentanoic acid]",< 5.52,
CCCC(CC1(C(=O)Nc2ccccn2)CCCC1)C(=O)O (stereo not given) [2-((1-(pyridin-2-ylcarbamoyl)cyclopentyl)methyl)pentanoic acid],< 5.52,
"CCc1nnc(NC(=O)C2(CCC(=O)O)CCCC2)s1 [3-(1-((5-ethyl-1,3,4-thiadiazol-2-yl)carbamoyl)cyclopentyl)propanoic acid]",< 5.52,6.63
"CCC[C@H](CC1(C(=O)NC2(CO)Cc3ccccc3C2)CCCC1)C(=O)O [(R)-2-((1-((2-(hydroxymethyl)-2,3-dihydro-1H-inden-2-yl)carbamoyl)cyclopentyl)methyl)pentanoic acid]",< 5.52,
"CCC[C@H](CC1(C(=O)Nc2nnc(CC)s2)CCCC1)C(=O)O [(R)-2-((1-((5-ethyl-1,3,4-thiadiazol-2-yl)carbamoyl)cyclopentyl)methyl)pentanoic acid]",< 5.52,
"CCC[C@H](CC1(C(=O)Nc2nnc(C)s2)CCCC1)C(=O)O [(R)-2-((1-((5-methyl-1,3,4-thiadiazol-2-yl)carbamoyl)cyclopentyl)methyl)pentanoic acid]",< 5.52,
"CCC[C@@H](CC1(C(=O)NC2(CO)Cc3ccccc3C2)CCCC1)C(=O)O [(S)-2-((1-((2-(hydroxymethyl)-2,3-dihydro-1H-inden-2-yl)carbamoyl)cyclopentyl)methyl)pentanoic acid]",< 5.52,
"CCC[C@@H](CC1(C(=O)Nc2nnc(CC)s2)CCCC1)C(=O)O [(S)-2-((1-((5-ethyl-1,3,4-thiadiazol-2-yl)carbamoyl)cyclopentyl)methyl)pentanoic acid]",< 5.52,
"CCC[C@@H](CC1(C(=O)Nc2nnc(C)s2)CCCC1)C(=O)O [(S)-2-((1-((5-methyl-1,3,4-thiadiazol-2-yl)carbamoyl)cyclopentyl)methyl)pentanoic acid]",< 5.30,
CCCC(CC1(C(=O)N[C@H]2CC[C@@H](C(=O)N(C)C)CC2)CCCC1)C(=O)O (stereo partly drawn) [cis-2-((1-((4-(dimethylcarbamoyl)cyclohexyl)carbamoyl)cyclopentyl)methyl)pentanoic acid],< 5.52,
CCCC(CC1(C(=O)N[C@H]2CC[C@@H](C(N)=O)CC2)CCCC1)C(=O)O (stereo partly drawn) [cis-2-((1-((4-carbamoylcyclohexyl)carbamoyl)cyclopentyl)methyl)pentanoic acid],< 5.52,6.82
